Measured values taken from the pKa sets of Baltruschat and Czodrowski (2020).

Details: acidic group

Row | SMILES | pKa
1 | NC1=[NH+][C@@H](CC(=O)O)C(=O)N1CCCC([NH3+])C(=O)[O-] (some centres undefined) | 3.26
2 | NNC(=O)C1(F)C(F)(F)C(F)(F)C(F)(F)C(F)(F)C1(F)F | 9.14
3 | O=C(O)[C@@H]1C[C@@H]1c1ccccc1 | 4.82
4 | CCNC(=S)OC(C)C | 11.5
5 | O=C(/C=N/O)CCl | 7.9
6 | CC(=N\O)/C(CN(C)C)=N\[O-] | 12.5
7 | CONc1cc(=O)n(C)c(=O)n1C | 10.6
8 | COCc1ccc(C(=O)O)cc1 | 4.18
9 | Cc1cc(I)ccc1C(=O)O | 3.79
10 | Nc1ccc(S(=O)(=O)NCc2ccco2)cc1 | 10.9
11 | O=C(O)c1[nH]c2ccccc2[nH+]1 | 0.4
12 | COc1nc(N)c2[nH]cnc2n1 | 10
13 | OC(C[S-])CS | 10.7
14 | O=C(NOC(=O)c1ccccc1)c1ccccc1 | 6
15 | CNC(=S)OC(C)C | 11.6
16 | C/C(=N\O)C(=O)[O-] | 11.4
17 | O=C(Cc1ccccn1)c1ccccc1 | 13.3
18 | CC(=O)C(=NO)C(C)=O | 7.44
19 | C[n+]1cccc2c(S)cccc21 | 3.22
20 | CC(C)=CC(=O)/C=N/O | 8.9
21 | Cc1cc(C(C)C)ccc1O | 10.6

Row | SMILES | pKa
22 | O=[PH](O)c1ccccc1 | 1.63
23 | C[NH+](C)Cc1cc([N+](=O)[O-])ccc1O | 5.75
24 | CCCCNc1ncnc2[nH]ncc12 | 11.2
25 | CCCc1c(C)[nH]n(C2CC[NH+](C)CC2)c1=O | 7.18
26 | Cn1c(N)nc2nc[nH]c2c1=O | 10.4
27 | Fc1cccc(NC(=S)c2ccccc2)c1 | 10.3
28 | Cc1n[nH]c2c1c(=O)n(C)c(=O)n2C | 9.83
29 | Cc1c[nH]cc1C(=O)O | 5.65
30 | COc1ccc(O)cc1C | 10.2
31 | CC(C)CNC(O)=S | 0.38
32 | On1nnc2ccc(C(F)(F)F)cc21 | 3.97
33 | CCSc1nccc(O)[n+]1C | 0.9
34 | CCCCOc1ccc(O)cc1 | 10.2
35 | C=CC(CC(C)(C)C)c1ccc2cccnc2c1O (centres undefined) | 9.8
36 | O=C1C=C(S(=O)(=O)[O-])/C(=N/O)c2[nH]ncc21 | 7.15
37 | CC(S)C(=O)O (centres undefined) | 3.35
38 | C[NH+](C)CCCCCCNC(=O)/C=N/O | 8.93
39 | Sc1ccc(Br)cc1 | 5.8
40 | O=C(O)c1c[nH]c2ccccc12 | 5.27
41 | ON=C(c1ccccc1)c1ccccc1 | 11.3
42 | COc1ccc(C=O)cc1O | 8.89

Row | SMILES | pKa
43 | CCCc1c(-c2ccccc2)nn(-c2ccccc2)c1O | 7
44 | Cc1cc(O)ccc1C(C)C | 10.3
45 | C[n+]1ccc2ccc(O)cc2c1 | 7.09
46 | [O-]\N=C1/CCCC(=N\O)/C1=N/[O-] | 12.2
47 | NC(=O)C(CCCCC(=O)O)c1ccccc1 (centres undefined) | 4.79
48 | O=c1ccccc(O)c1[O-] | 11.5
49 | O=C(O)CCCc1ccccc1 | 4.78
50 | CCOc1cccc[n+]1O | 1.18
51 | CNCC(N)=O | 8.35
52 | N#C/C(=N\O)C(N)=O | 5.12
53 | ONc1ncnc2nc[nH]c12 | 9.83
54 | COc1ccc(CCC(=O)O)cc1 | 4.72
55 | CC1(C(=O)O)CCC=[N+]1[O-] (centres undefined) | 2.95
56 | CC1NCCc2c1[nH]c1ccc(Cl)cc21 (centres undefined) | 15.2
57 | Cc1nn(-c2ccccc2)c(O)c1Cc1ccccc1 | 11.8
58 | O=C(O)/C=C/C(=O)c1ccccc1 | 3.34
59 | CC[C@]1(c2ccccc2)NC(=O)NC1=O | 8.5
60 | N[C@@H](Cc1nc[nH]c1I)C(=O)[O-] | 12.4
61 | C[C@H]1CC[C@H](C)C1C(=O)O | 4.74
62 | Cn1c(=O)c2cn[nH]c2n(C)c1=O | 9.26
63 | COP(=O)([O-])NS(=O)(=O)c1ccccc1 | 6.25

Row | SMILES | pKa
64 | O=[N+]([O-])c1cccc(S(=O)O)c1 | 1.21
65 | CN1CCC(=O)NC1=O | 11.9
66 | Nc1ncnc2[nH]ncc12 | 10.8
67 | Fc1ccc(NC(=S)c2cccc(Br)c2)cc1 | 10.3
68 | CC(C)(C(N)=O)S(N)(=O)=O | 9.92
69 | O=C1NC(=O)C(Cc2ccccc2)N1 (centres undefined) | 9.03
70 | Oc1ccc(O)[nH+]n1 | -2.2
71 | CC(=O)c1cccc(=O)c(O)c1 | 6.16
72 | N#CCC(C(=O)O)c1ccccc1 (centres undefined) | 3.44
73 | O=C(c1ccccc1)c1cccc(O)c1 | 9
74 | Cc1cccc(/C=N/O)n1 | 10
75 | CC1CCCC(C)C1C(=O)O (centres undefined) | 4.88
76 | CC1(C)C(=O)[CH-]C(=O)CC1=O | 9.73
77 | CC(C)N(Cc1ccccc1O)C(C)C | 11.4
78 | [O-]c1cc[nH+]cc1O | 9.6
79 | CC(C)c1cccc2ccc(O)cc12 | 9.52
80 | Nc1ncc2[nH]cnc2n1 | 9.93
81 | Cc1cc(Cl)ccc1O | 9.6

Same assay, conditions: basic group

Row | SMILES | pKa
82 | c1ccc(C2=NCCC2)cc1 | 7.2
83 | CN(C)c1ncc(Br)s1 | 3.66
84 | Cc1ncc(CO)c(C)c1OCc1ccccc1 | 5.52
85 | C1CNC1 | 11.3
86 | Nc1ccc(S(=O)(=O)NCc2ccco2)cc1 | 2.25
87 | COc1nc(N)c2[nH]cnc2n1 | 3.7
88 | Nc1nc(NCO)nc(NCO)n1 | 4.65
89 | C1CCC(NC2CCCCO2)OC1 (centres undefined) | 8.1
90 | CC(=O)/C(CN1CCCCC1)=N\[O-] | 10.7
91 | CC(C)CCCN(C)CCCNC(=O)/C=N/[O-] | 10.2
92 | CCSC(=O)c1cccc(C)c1 | -4.77
93 | NCc1ccc(N)cc1 | 10
94 | Cc1cc(-c2ccccc2)nn2c(CN3CCOCC3)cnc12 | 6.01
95 | c1ccc(-c2cc[nH+]cc2)nc1 | 1.19
96 | COc1cc([N+](=O)[O-])cc(C(=O)N[C@@H]2C[C@H]3CC[C@@H](C2)N3Cc2ccccc2)c1OC | 8.7
97 | Nc1ccc(-c2ccc([NH3+])cc2)cc1 | 3.66
98 | CCC(O)CN(CC)CC(O)CC (centres undefined) | 9.2
99 | CNCCc1ccc(O)cc1 | 9.36
100 | CCCCC(N)C(=O)[O-] (centres undefined) | 9.89
101 | CCc1cnc(C(=O)[O-])cc1CC | 6.58
102 | Nc1cc([NH3+])ccc1O | 3.05
103 | O=C1Nc2cncnc2N/C1=C1/Nc2ncncc2NC1=O | 1
104 | CCOc1ccc2nc3cc([N+](=O)[O-])ccc3c(N)c2c1 | 7.5
105 | [O-]c1ncnc2cccnc12 | 8.95
106 | C=C[C@]1(O)CN2CC[C@H]1C[C@H]2[C@H](O)c1cc([O-])[nH+]c2ccccc12 | 7.65

Row | SMILES | pKa
107 | O=C(Cc1ccccn1)c1ccccc1 | 4.53
108 | CN(C)CCN(C)C | 9.15
109 | Cc1ccnc([O-])n1 | 9.8
110 | Cn1ccc(=N)cc1 | 12.5
111 | CCOCCn1c(CN2CCN(CCCCn3cccn3)CC2)nc2ccccc21 | 7.9
112 | Cn1ccc(=S)cc1 | 1.36
113 | Nc1cc(Br)cc(Br)c1 | 2.49
114 | C1CN(CCN2CCOCC2)CCO1 | 6.65
115 | CCCCNc1ncnc2[nH]ncc12 | 4.67
116 | Nc1ccc2cc3ccc4ccccc4c3nc2c1 | 6.72
117 | CCCNC(C)C(=O)Nc1ccccc1C (centres undefined) | 7.32
118 | Cn1c(N)nc2nc[nH]c2c1=O | 3.2
119 | CN(CC[NH+](C)C)CC[NH+](C)C | 2.57
120 | COc1cc(S(C)(=O)=O)cc(C(=O)N[C@@H]2C[C@H]3CC[C@@H](C2)N3Cc2ccccc2)c1OC | 8.92
121 | Nc1ncc(-c2ccccc2)s1 | 4.9
122 | CCC(C)(C)N | 10.9
123 | Nc1cncc2ccccc12 | 6.28
124 | COc1ccc2c3c1O[C@H]1CCC[C@H]4[C@@H]([C@H]2O)N(C)CC[C@]314 | 7.71
125 | C=CC(CC(C)(C)C)c1ccc2cccnc2c1O (centres undefined) | 4.94
126 | Nc1nc(N)nc(N)n1 | 5.06
127 | CCCCNCC[NH2+]CCCC | 7.46
128 | CN(C)c1ccc(Br)cc1 | 4.25
129 | NCCCc1ccccc1 | 10.3
130 | CNc1ccc(OC)cc1 | 5.93
131 | CCCCCCCCCCCCCCCNCCCCCCCCCCCCCCC | 11

Row | SMILES | pKa
132 | CC(C)(N)c1ccccc1 | 10.4
133 | C[C@@H]1[C@@H](N)[C@H]1N | 8.98
134 | N/C(CC([NH3+])c1ccccc1)=N\O (centres undefined) | 3.75
135 | Brc1cncc2ccccc12 | 3.54
136 | CNCCCc1ccccc1 | 10.6
137 | CC1=[NH+]c2ccccc2/C1=C/C=C1\Cc2ccccc2N1C | 1.22
138 | NC(=O)CCCCc1ccncc1 | 5.92
139 | CN(C)c1cccc2cccc(N(C)C)c12 | 12.1
140 | c1ccc(CSc2ccncc2)cc1 | 5.41
141 | Nc1nc(N)nc(N(CCO)CCO)n1 | 5.1
142 | CN1[C@@H]2CC[C@H]1C[C@@H](O)C2 | 9.86
143 | O=[N+]([O-])c1ccc2[nH]c(-c3ccccc3)nc2c1 | 2.95
144 | ONc1ncnc2nc[nH]c12 | 3.8
145 | CNCCN(C)CCN | 10.2
146 | CCC(=O)C(CCN1CCCCC1)(c1ccccc1)c1ccccc1 | 8.86
147 | C[Si](C)(C)CCCN | 10.8
148 | OCCCCc1ccncc1 | 6.01
149 | c1ccc(-c2ccncc2)nc1 | 4.77
150 | CCNCCNCC | 10.5
151 | [O-]c1ccnc2ccccc12 | 11.2
152 | N[C@@H](Cc1nc[nH]c1I)C(=O)[O-] | 8.62
153 | N#CC1CC2CCN1CC2 (centres undefined) | 5.85
154 | Cc1cc(-c2cc(C)n[nH]2)[nH]n1 | 2.8
155 | CCCN(CCO)CC(O)CC (centres undefined) | 9
156 | CN1CCCCCC1 | 11

Row | SMILES | pKa
157 | Nc1ncnc2[nH]ncc12 | 4.59
158 | CC1CC2CCN1CC2 (centres undefined) | 11.3
159 | Cc1c2ccccc2c(CN2CCOCC2)c2ccccc12 | 6.6
160 | COc1cccc(C(=O)CCN2CCOCC2)c1 | 7.1
161 | NCCC(=O)NCCc1c[nH]cn1 | 9.21
162 | Cc1ccc([N+](=O)[O-])c2c(NCCC[NH+](C)C)c3ccccc3nc12 | 6.29
163 | CN(C)c1ccc(N2CCOCC2)cc1 | 5.7
164 | C1CSCN1 | 6.31
165 | CN(C)CCCN(C)C | 9.8
166 | c1nc(Cc2c[nH]c(Cc3nc(Cc4c[nH+]c[nH]4)c[nH]3)[nH+]2)c[nH]1 | 5.43
167 | c1nc(Cc2c[nH]c(Cc3nc(Cc4cnc[nH]4)c[nH]3)[nH+]2)c[nH]1 | 6.66
168 | CC[C@]12CCCN3CC[C@@]4(c5cccc(OC)c5N[C@H]4CC1)[C@@H]32 | 8.46
169 | CCCN(CCC)CCCNC(=O)/C=N/[O-] | 10.3
170 | CNCC(=O)NCCc1c[nH]cn1 | 8.31
171 | CC(C)C=O | 15.7
172 | CCOC(=O)CC(NC)c1ccccc1 (centres undefined) | 8.23
173 | CN(C)Cc1cc(/N=N/c2ccccc2)ccc1[O-] | 10.2
174 | CC(C)N(Cc1ccccc1O)C(C)C | 7.55
175 | CCOc1ccc2ccc(OCC)c(N3CCOCC3)c2c1N1CCOCC1 | 12.5
176 | O=[N+]([O-])c1ccc([O-])c(CN2CCOCCOCCOCCOCCOCC2)c1 | 9.59
177 | Nc1ncc2[nH]cnc2n1 | 3.8
178 | [S-]c1cnc2cncnc2n1 | 5.5
179 | O=[N+]([O-])c1ccc2[nH]c(C(F)(F)Cl)nc2c1 | 0.77
